In US6469127B1, “Polycarbonate resin having low tendency of releasing environmental endocrine disruptors” (Space Environmental Technology Company, Inc,, priority 1999, dated 2002):

Molecular target: T1, Estrogen Receptor (Homo sapiens, UniProt P03372)
T1 sequence (P03372 1-595): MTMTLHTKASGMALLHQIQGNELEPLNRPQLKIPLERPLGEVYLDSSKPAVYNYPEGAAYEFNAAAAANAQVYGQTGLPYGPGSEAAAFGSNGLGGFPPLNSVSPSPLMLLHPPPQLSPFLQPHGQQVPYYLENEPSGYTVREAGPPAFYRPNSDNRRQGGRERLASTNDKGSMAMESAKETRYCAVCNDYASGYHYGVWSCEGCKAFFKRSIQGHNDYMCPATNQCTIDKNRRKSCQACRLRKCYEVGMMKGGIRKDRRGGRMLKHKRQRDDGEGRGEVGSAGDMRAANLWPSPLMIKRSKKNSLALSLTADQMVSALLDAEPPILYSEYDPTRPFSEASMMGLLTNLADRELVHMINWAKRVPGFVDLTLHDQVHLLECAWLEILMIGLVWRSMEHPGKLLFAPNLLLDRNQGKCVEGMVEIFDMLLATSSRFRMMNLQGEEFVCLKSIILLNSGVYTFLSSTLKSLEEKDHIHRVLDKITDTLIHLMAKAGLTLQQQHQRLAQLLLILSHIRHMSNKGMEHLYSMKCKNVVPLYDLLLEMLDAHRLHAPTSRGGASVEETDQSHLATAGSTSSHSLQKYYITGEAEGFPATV
Test: Tendency to link to estrogen receptor (IC50 of bisphenols and reference compounds, Table 1)
Type: binding
Conditions: concentration required to substitute 50% of genuine hormone linked to receptor

Q: How did the IC50 turn out when CCCCCCCCCc1ccc(O)cc1 [4-Nonylphenol] was run?
A: The IC50 was 3.9 µM.
